For test [1], the system named is LX2 cells. The test is described as follows: qRT-PCR of Col1A1, PHGDH, PSAT1, SHMT1, SHMT2 mRNA in LX2 cells after TGFβ. Type of test: cell-based. The note with it: following TGFβ treatment, vs DMSO, qRT-PCR fold change. As for the experimental part: Cellular levels of mRNA of collagen (Col1A1), PHGDH, PSAT1, SHMT1, and SHMT2 in LX2 cells with DASA-10 (black bar) or DMSO (open bar) treatment following TGFβ treatment were analyzed by qRT-PCR. The cellular mRNA levels are presented as fold change by comparing controls. Error bars represent mean±S.E.M.

Test [2] has as its system LX2 cells. The test is described as follows: LOX and LOXL2 expression in LX2 cells under hypoxia (immunoblot, qPCR). To be noted: 10 μM, hypoxia 24 hours, vs DMSO. It is filed as cell-based. As for the experimental part:
(§1) Section (B) Relative band intensities were calculated for both LOX and LOXL2 using ImageJ.
On the technique in general: Immunoblotting shows a protein as a band on a membrane.

The test system of the next test is NLF cells. The test is described as follows: LOX and LOXL2 expression in NLF cells under hypoxia (immunoblot, qPCR). Type of test: cell-based. The note with it: 10 μM, hypoxia 24 hours, vs DMSO. As for the experimental part:
as §1

The test system of test [3] is TAA/alcohol liver fibrosis. The test is described as follows: TAA/alcohol liver fibrosis induction in mice with subsequent treatment. It is filed as in vivo. As for the experimental part: (§2) Sections (A) & (E) of FIG. 1 are schematic illustrations of the schedule of TAA/alcohol liver fibrosis (A) and bleomycin lung fibrosis (E) induction and subsequent TEPP-46 treatments. […] Sections (C) & (D) of FIG. 1 show quantitation of collagen levels in Sirius red (B) and Masson's trichrome (F) staining and a-SMA IF (B) and IHC (F) staining of fibrotic liver (B) and lung (F) using ImageJ software. Quantification was calculated from measurements of 10 mice. Four randomly selected tissue sections per animal and three randomly selected view fields in each section were quantified. The quantity of collagen levels in Sirius red or Masson's trichrome stain and α-SMA IF or IHC stain is presented as % of total area. […] Sections (G) & (H) show Quantitative analyses of Serine (G) and Glycine (H) levels in tissue extracts of liver and lung from mice treated with indicated agents by HPLC-ms. Serine and glycine levels are presented as relative abundance by defining the vehicle treated group as 100%. Error bars in Sections C, D, G, H represent mean±S.E.M

The next test relates to bleomycin lung fibrosis. The test is described as follows: Bleomycin lung fibrosis induction in mice with subsequent treatment. Type of test: in vivo. As for the experimental part:
as §2

In the next test the test system is cerulein pancreatitis. The test is described as follows: Cerulein pancreatitis induction in mice with subsequent treatment. It is filed as in vivo. The note with it: cerulein-induced, vs vehicle. As for the experimental part:
Section (A) is schematic illustration of the schedule of cerulein (red arrows) pancreatitis induction and subsequent TEPP-46 treatments (green arrows). […] Quantification was calculated from measurements of 6 mice. Four randomly selected tissue sections per animal and three randomly selected view fields in each section were quantified. The quantity of collagen levels in Sirius red stain is presented as % of total area.

Test [4] deals with myocardial infarction (MI). The test is described as follows: Myocardial infarction by left ventricle ligation, cardiac fibrosis. It is filed as in vivo. The note with it: C57BL/6J mice, LV ligation 70 minutes, i.p. injection, vs vehicle. As for the experimental part: C57BL/6J mice (n=6/group) were induced myocardial infarction (MI) by left ventricle ligation (LV). Sham are the mice underwent the same surgical procedure without LV. After 70 minutes, the LV was relieved. All mice were immediately treated with TEPP-46 or vehicle by i.p. injection. No treatment for the Sham mice. […] Scale bars, […]. […] The quantification is a mean value of randomly selected 4 fields from each section. Four sections were randomly selected from each mouse. The quantification is presented as blue staining Collagen Area (%). Error bars represent mean±S.E.M. * P<0.05, ** P<0.01, *** P<0.001, by unpaired two-tailed Student's t-test.

Turning to `O=S(=O)(c1ccc2c(c1)OCCO2)N1CCN(S(=O)(=O)c2c(F)cccc2F)CC1` [DASA-10], the “metabolic enzymes involved in serine/glycine metabolism (mRNA of Col1A1, PHGDH, PSAT1, SHMT1, SHMT2)” value in the test on LX2 cells [1] is given as “decreases metabolic enzymes that are involved in serine/glycine metabolism”. Moreover, the “LOX and LOXL2 expression” value in the test on LX2 cells [2] is “reduces LOX and LOXL2 expression”; with NLF cells, “reduces LOX and LOXL2 expression”.

For the compound `Cn1c2cc([S+](C)[O-])sc2c2cnn(Cc3cccc(N)c3)c(=O)c21` (centres unmarked) [TEPP-46], the “liver fibrosis (collagen by Sirius red, α-SMA IF staining, % of total area)” value in test [3] (TAA/alcohol liver fibrosis, mice, vs vehicle) is “reverses liver and lung fibrosis”. The “LOX expression in vivo (IHC LOX positive area, LOX activity)” value in test [3] (fibrotic liver, TAA/alcohol model) is listed as “reduces LOX expression in vivo”; in the test on bleomycin lung fibrosis (fibrotic lungs, bleomycin model), “reduces LOX expression in vivo”. In addition, the “serine/glycine metabolism (serine and glycine levels in tissue extracts by HPLC-ms)” value is “decreases serine/glycine metabolism” in test [3] (fibrotic liver, relative abundance, vehicle group = 100%) and “decreases serine/glycine metabolism” in the test on bleomycin lung fibrosis (fibrotic lung, relative abundance, vehicle group = 100%). Further, the “lung fibrosis (collagen by Masson's trichrome, α-SMA IHC staining, % of total area)” value in the test on bleomycin lung fibrosis (bleomycin lung fibrosis, mice, vs vehicle) is “reverses liver and lung fibrosis”. Moreover, the “pancreatitis (collagen in Sirius red staining, H&E of pancreas)” value with cerulein pancreatitis is given as “reverse pancreatitis”. In addition, the “cardiac fibrosis after infarction (trichrome Collagen Area %)” value in test [4] was “decreases cardiac fibrosis after infarction”.

For the origin of these results see patent US20250387390A1, “METHODS FOR TREATING FIBROSIS USING PKM2 ACTIVATORS” (Proda Biotech L.L.C., priority 2020, published 2025).
